Laboratory results: patent US7041465B1 (priority 1999, dated 2006)
Where two headings read alike, the source gives them in different places.

How the values were obtained:
FimH = FimH (Escherichia coli, UniProt P08191); settings: peptides coated at 2 nmol/50 μl, FimC protein at 0.1 nmol/50 μl; increasing concentrations of FimH (5–25 pmol/well); FIG. 12
Description: (§1) The peptides were diluted in phosphate buffered saline (PBS) (120 mM NaCl, 2.7 mM KCl, 10 mM, […], pH 7.4) to 2 nmol/50 μl. FimC protein was diluted to 0.1 nmol/50 μl and coated overnight onto microtiter wells with 50 μl/well at 4° C. The ELISA assay was carried out as described in Kuehn et al., 1993 and Hung et al., 1996. Briefly, the wells were washed three times with PBS and blocked with 3% Bovine Serum Albumin (BSA) in PBS for two hours at 25° C. Then the wells were washed three times with PBS. The FimC-FimH co-complex was incubated in 3 M urea to separate the two proteins. Pure FimH in 3 M urea was collected from the flow through of a Source 15S column (Pharmacia). See Barnhart et al., PNAS USA 97: 7709–7714 (2000). The wells were incubated with 50 μl of FimH in 3% BSA-PBS diluted to 5–25 pmol/well FimH for 45 minutes at 25° C. The wells were washed 3 times with PBS followed by incubation with a 1:1000 dilution of mouse anti-FimH antibodies in 3% BSA-PBS for 45 minutes at 25° C. The wells were washed 3 times with PBS followed by incubation with a 1:1000 dilution of goat antiserum to mouse IgG (Sigma) conjugated to alkaline phosphatase diluted in 3% BSA-PBS for 45 minutes at 25° C. The wells were washed 3 times with PBS and washed 3 times with developing buffer (10 mM diethanolamine, 0.4 mM MgCl2). The ELISA was developed by adding 50 μl of substrate (50 μl of filtered 1 mg/ml p-nitrophenyl phosphate; Sigma) in developing buffer. The reaction was incubated for 1 hour at 25° C. in the dark and the absorbance at 405 nm was read.
(§2) The competition assays were carried out similarly. FimC was coated onto microtiter wells at 0.1 nmol/well. FimH at 5 pmol/well in 3% BSA-PBS was added to the FimC coated wells in the presence or the absence of the FimC or FimG peptide at 2 nmol/well or the indicated peptide concentration. Further, increasing concentrations of FimH were incubated with constant concentrations of the FimC or FimG peptides or the FimC protein immobilized on microtiter wells. […] FimH was added to the FimC coated wells in the presence or absence of peptides to FimC or FimG.

FimH binding to FimC = FimH binding to FimC (Escherichia coli, UniProt P08191); settings: FimC coated at 0.1 nmol/well, FimH 5 pmol/well; for Inhibition of FimH binding to FimC immobilized on microtiter wells: peptide at 2 nmol/well (tested concentration), FIG. 14; for FimH binding to immobilized FimC in the presence of increasing concentrations of peptide: FIG. 13
FimH binding to FimC, sequence (P08191 22-300): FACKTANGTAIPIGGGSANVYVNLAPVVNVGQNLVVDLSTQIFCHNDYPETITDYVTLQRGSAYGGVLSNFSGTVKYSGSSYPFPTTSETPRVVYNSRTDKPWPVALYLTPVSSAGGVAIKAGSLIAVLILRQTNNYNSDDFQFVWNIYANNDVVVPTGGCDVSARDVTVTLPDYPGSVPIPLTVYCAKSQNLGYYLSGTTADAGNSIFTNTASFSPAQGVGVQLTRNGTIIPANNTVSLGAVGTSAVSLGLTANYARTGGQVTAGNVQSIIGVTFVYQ
Description: as §1, §2

FimH, sequence (P08191 22-300): as above

Sequence | FimH binding to the immobilized peptide or FimC protein (ELISA, anti-FimH antibodies, absorbance at 405 nm) (FimH) | Inhibition of FimH binding to FimC immobilized on microtiter wells (FimH binding to FimC) | FimH binding to immobilized FimC in the presence of increasing concentrations of peptide (FimH binding to FimC) | FimH binding to immobilized FimC in the presence of increasing concentrations of peptide (FimH binding to FimC; listed as FimC polypeptide)
DVTITVNGK [FimG peptide] | bound well | did not inhibit | – | –
NTLQLAIISR [FimC peptide] | bound well | inhibited the ability of FimH to bind to FimC | further decreased the ability of FimH to bind to FimC | inhibit FimH binding to FimC
